Like-named read-outs stand apart in the source and are kept apart here.
What was measured:
Format in all cases: binding
[1] = target: T1, GST-CIB1 : F-scrambled peptide (Homo sapiens, UniProt Q99828); assay: FP scrambled-peptide counter screen, 1536-well format; conditions: scrambled-peptide counterscreen; for COUNTERSCREEN Confirm?: YES/NO call; for IC50: read-out: COUNTERSCREEN IC50; for COUNTERSCREEN Curve Class: qHTS curve class
T1 construct: made in house; host or cells: BL-21 plus RIL cells (E. coli)
T1 sequence (Q99828 1-191): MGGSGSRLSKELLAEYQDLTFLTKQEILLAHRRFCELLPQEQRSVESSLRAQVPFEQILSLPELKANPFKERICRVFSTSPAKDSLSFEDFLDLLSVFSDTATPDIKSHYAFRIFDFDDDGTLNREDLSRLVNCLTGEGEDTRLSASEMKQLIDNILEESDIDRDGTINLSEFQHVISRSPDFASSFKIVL

[2] = target: T1, GST-CIB1 : F-scrambled peptide; assay: FP scrambled-peptide counter screen, 384-well format; conditions: F-scrambled peptide; for 384-well COUNTERSCREEN Confirm?: *: Curve in opposite direction; for IC50: read-out: 384-well COUNTERSCREEN IC50
[3] = target: T2, CIB1 and αIIb interaction (CIB1-GST : F-αIIb peptide) (Homo sapiens, UniProt Q99828); assay: FP assay, 1536-well qHTS format (primary and confirmatory screen); conditions: for CONFIRMATORY SCREEN Confirm?: YES/NO call; for CONFIRMATORY SCREEN Curve Class: qHTS curve class; for CONFIRMATORY SCREEN Curve Class / Curve Class: negative sign = inhibitory curve; for CONFIRMATORY SCREEN Efficacy (%) / Efficacy (%): negative = inhibition
T2 construct: made in house; host or cells: BL-21 plus RIL cells (E. coli)
T2 sequence (Q99828 1-191): T1 sequence (Q99828 1-191)

[4] = target: T3, CIB1 and αIIb interaction (GST-CIB1 : F-αIIb peptide) (Homo sapiens, UniProt Q99828); assay: FP assay, 384-well format (screen); design: 384-well SCREEN Efficacy (%): concentration or dose not given beside the values; conditions: for 384-well SCREEN Efficacy (%) / 384-well SCREEN Confirm? / IC50: F-αIIb peptide; for 384-well SCREEN Confirm?: YES/NO; for IC50: read-out: 384-well SCREEN IC50
T3 construct: made in house; host or cells: BL-21 plus RIL cells (E. coli)
T3 sequence (Q99828 1-191): T1 sequence (Q99828 1-191)

[5] = confirmatory screen, read-out: CONFIRMATORY SCREEN IC50
[6] = qHTS primary screen hits, Table S2
[7] = qHTS primary screen hits, Table S2, several classes where COUNT > 1
[8] = qHTS primary screen hits, Table S2, read-out: IC50
[9] = qHTS FP screen hits, Table S2, read-out: IC50
[10] = qHTS FP screen hits, Table S2, one class per curve where COUNT > 1

Row | SMILES | COUNTERSCREEN Efficacy (%) [1] [%] | COUNTERSCREEN Confirm? [1] | IC50 [1] [µM] | 384-well COUNTERSCREEN Efficacy (%) [2] [%] | 384-well COUNTERSCREEN Confirm? [2] | IC50 [2] [µM] | CONFIRMATORY SCREEN Confirm? ([3]; confirmatory screen) | CONFIRMATORY SCREEN Curve Class ([3]; confirmatory screen) | CONFIRMATORY SCREEN Efficacy (%) ([3]; confirmatory screen) | IC50 [3, 5] [µM] | Efficacy (%) [3, 6] [%] | Curve Class [3, 7] | IC50 [3, 8] [µM] | 384-well SCREEN Efficacy (%) [4] [%] | 384-well SCREEN Confirm? [4] | IC50 [4] [µM] | COUNTERSCREEN Curve Class [1] | Efficacy (%) ([3]; qHTS FP screen hits, Table S2) | IC50 [3, 9] [µM] | other results
1 | Cc1ccc(-c2cc(-c3nn(-c4nc(C(=O)O)cs4)c(CC4CC4)c3Cc3ccc(S(N)(=O)=O)c(F)c3)ccc2F)o1 [NCGC00389082-01] | 154 | YES | 79.4 | 158 | YES | 39.8 | YES | -3 | -77 | 28.2 | -40 | -2.4 | 22.4 | 60 | YES | 4.5 |  |  |  | 
2 | O=C(O)C(F)(F)F.O=c1c2ccccc2nc2sc(Nc3cccc(N4CCN5CCCCC5C4)c3)nn12 (stereo not drawn) [NCGC00189229-01] | -28 | YES | 56.2 | 42 |  | 17.8 | YES | -1.2 | -50 | 7.9 |  |  |  | 42 | YES | 120 | -2.4 | -20 | 2.5 | 
3 | Cc1ccc(S(=O)(=O)Nc2cnccc2C(=O)Nc2nc3ccccc3s2)cc1.O=C(O)C(F)(F)F [NCGC00343897-01] | 17 | YES |  | 16 | YES | > 120 | YES | -1.4 | -52 | 10 | -44 | -1.2 | 31.6 | 30 | YES | 12.6 | 4 |  |  | 
4 | Cc1ccc(S(=O)(=O)Nc2cnccc2C(=O)Nc2nc(-c3ccc(C)c(C)c3)cs2)cc1.O=C(O)C(F)(F)F [NCGC00318954-01] | 17 | YES |  | 37 | YES* | 31.6 | YES | -1.4 | -70 | 22.4 | -61 | -3 |  | 52 | YES | 16 | 4 |  |  | 
5 | Cc1c(C)n(Cc2ccc(-c3ccccc3C(=O)O)cc2)c2ccc(C(=O)N[C@@H](C)c3ccc([N+](=O)[O-])cc3)cc12 [NCGC00347955-04] | 95 | YES | 89.1 | 32 | YES | > 120 | YES | -1.2 | -52 | 22.4 |  |  |  | 56 | YES | 12.6 | 3 |  |  | 
6 | O=C(O)C(F)(F)F.O=C(O)c1ccc(-c2ccc3ncnc(NCc4nccs4)c3c2)o1 [NCGC00229620-01] | -21 | YES |  | 48 |  | 31.6 | YES | -2.4 | -55 | 44.7 |  |  |  | 40 | YES | 17.8 | 4 | -25 | 10 | 
7 | Nc1c(Cc2ccc(S(N)(=O)=O)cc2)c(-c2cccc(-c3ccccc3)c2)nn1-c1nc(C(=O)O)cs1.O=C(O)C(F)(F)F [NCGC00356752-02] | 0 | YES |  | 34 | Inconclusive | 1.6 | YES | -2.2 | -78 | 39.8 |  |  |  | 49 | YES | 14.1 | 4 | -54 | 28.2 | Curve Class [3, 10]: -2.2; Confirm and Selective? ([4]; selective toward αIIb: negative curve class and/or IC50 ratio of >3-fold and/or >2-fold efficacy vs scrambled peptide): Inconclusive
8 | CCCCCc1c2c(cc(O)c1C(=O)O)OC(=O)c1c(cc(OC)cc1C(=O)CCCC)O2.O=C(O)C(F)(F)F [NCGC00095570-05] | -14 | YES |  | 58 | YES | 50.1 | YES | -1.2 | -60 | 11.2 | -33 | -1.4 | 12.6 | 38 | YES | 8.9 | 4 |  |  | 
9 | C=CCNc1oc(-c2cccc3ccccc23)nc1C#N.O=C(O)C(F)(F)F [NCGC00068824-04] | -19 | YES |  | 51 |  | 4.5 | YES | -1.2 | -78 | 15.8 |  |  |  | 71 | YES | 4 | 4 | -38 | 17.8 | Curve Class [3, 10]: -1.2
10 | Cc1ccc(S(=O)(=O)Nc2cnccc2C(=O)Nc2nc(-c3ccc(Cl)cc3)cs2)cc1.O=C(O)C(F)(F)F [NCGC00318981-01] | 53 | YES | 89.1 | 60 |  | 28.2 | YES | -1.2 | -69 | 28.2 | -35 | -1.2 | 31.6 | 45 |  | > 120 | 3 |  |  | 

— article PMC11249646, “Small-Molecule Disruptors of the Interaction between Calcium- and Integrin-Binding Protein 1 and Integrin αIIbβ3 as Novel Antiplatelet Agents” (ACS Pharmacology & Translational Science, 2024)
